Among the test systems are RXF-631 renal; HOP-18 NSCLC; KM20L2 colon; LXFL 529 NSCLC; XF 498 CNS; SNB-78 CNS.
Common to all, as to experiment: NCI-60 cell line screen, 48 h

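Five concentrations, 48 hours, 96-well plates. TGI is the concentration that stops growth completely.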 A value given as a limit tells only on which side of the number the result lay.

For the compound `N#CC(/C(=N\NC(N)=S)C(=O)NC1C2CC3CC(C2)CC1C3)c1ccc(Cl)cc1` (configuration not stated), the TGI with RXF-631 renal, with HOP-18 NSCLC, with KM20L2 colon, with LXFL 529 NSCLC, in the experiment on XF 498 CNS and with SNB-78 CNS was over 100 µM in each case.
With `C/C(=N\NC(=S)Nc1ccc([N+](=O)[O-])cc1S(=O)(=O)O)c1ccccn1`, the TGI was over 100 µM with RXF-631 renal; over 100 µM in the experiment with HOP-18 NSCLC; 67.2 µM in the experiment with KM20L2 colon; over 100 µM in the experiment on LXFL 529 NSCLC; 78.7 µM in the experiment on XF 498 CNS; over 100 µM with SNB-78 CNS.
As to `OCC1CC2CC1C1(C2)OCCO1` (configuration not stated), the TGI in the experiment with RXF-631 renal, in the experiment with HOP-18 NSCLC, in the experiment with KM20L2 colon, in the experiment with LXFL 529 NSCLC, in the experiment on XF 498 CNS and with SNB-78 CNS was over 100 µM each time.
As for `O=C(O)CNS(=O)(=O)c1ccc(NC(=O)c2cccc([N+](=O)[O-])c2)cc1`, the TGI in the experiment with RXF-631 renal, with HOP-18 NSCLC, in the experiment with KM20L2 colon, with LXFL 529 NSCLC and in the experiment on XF 498 CNS was over 100 µM in each case.
Take `Cc1ccc(C)c(NC(=O)CCc2n[nH]c(=S)o2)c1`: the TGI in the experiment on RXF-631 renal, in the experiment with HOP-18 NSCLC, with KM20L2 colon, in the experiment with LXFL 529 NSCLC, in the experiment with XF 498 CNS and in the experiment with SNB-78 CNS was over 100 µM each time.
For `COc1ccc(C2CC(C)=Nc3c([nH]c(=S)[nH]c3=O)N2)cc1` (configuration not stated), the TGI with RXF-631 renal is over 100 µM; in the experiment on HOP-18 NSCLC, over 100 µM; with KM20L2 colon it was 31.7 µM; with LXFL 529 NSCLC, 30.5 µM; with XF 498 CNS, 59.4 µM; in the experiment with SNB-78 CNS, over 100 µM.
As for `COc1ccc(-c2nc(N)nc(-c3cc(C)ccc3O)c2Cl)cc1`, the TGI was over 100 µM in the experiment with RXF-631 renal; over 100 µM with HOP-18 NSCLC; over 100 µM in the experiment on KM20L2 colon; over 100 µM in the experiment on LXFL 529 NSCLC; 64.3 µM in the experiment with XF 498 CNS; 81.9 µM in the experiment with SNB-78 CNS.
As for `Nc1nc(Cl)cc(NCCCCCCCCCCNc2cc(Cl)nc(N)n2)n1`, the TGI with RXF-631 renal was 40.3 µM; in the experiment with HOP-18 NSCLC, over 100 µM; in the experiment on KM20L2 colon, over 100 µM; with LXFL 529 NSCLC, over 100 µM; in the experiment on XF 498 CNS, 8.86 µM; in the experiment on SNB-78 CNS it was over 100 µM.
